From PMC10954696, “Development of a novel AAK1 inhibitor via Kinobeads-based screening” (Scientific Reports, 2024)
pIC50: −log10 of the molar value. Entries after “also recorded” stand apart in the source; their conditions may differ.

Columns and labels:
[1] = biological target: T1, His-tagged AAK1 catalytic domain (25–396) (Homo sapiens, UniProt Q2M2I8); experiment: AAK1 activity assay: phosphorylation of GST-AP2µ2 (145–162) by His-AAK1 25–396 with [γ-32P]ATP; type: biochemical; conditions: for pIC50: His-AAK1 25–396, GST-AP2µ2 (145–162), 100 µM [γ-32P]ATP, 30 °C, 20 min, read-out: IC50 against AAK1 activity
T1 construct: Purified His-AAK1 25–396 (200 ng); His10 (N); made in house; host or cells: COS-7 cells
T1 sequence (Q2M2I8 25-396): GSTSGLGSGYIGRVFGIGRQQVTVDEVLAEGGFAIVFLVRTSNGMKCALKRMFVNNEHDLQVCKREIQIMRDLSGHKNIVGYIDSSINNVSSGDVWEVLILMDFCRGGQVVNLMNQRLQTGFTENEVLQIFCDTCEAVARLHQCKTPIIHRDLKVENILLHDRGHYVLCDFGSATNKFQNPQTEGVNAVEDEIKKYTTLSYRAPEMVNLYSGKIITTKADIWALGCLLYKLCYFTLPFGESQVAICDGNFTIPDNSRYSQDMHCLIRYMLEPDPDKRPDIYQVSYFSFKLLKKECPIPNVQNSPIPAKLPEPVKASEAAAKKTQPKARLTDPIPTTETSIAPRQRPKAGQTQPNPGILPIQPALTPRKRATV
Method: AAK1 phosphorylates AP2µ2 at Thr156; therefore, we set up an AAK1 activity assay using GST-fused AP2µ2 fragment (residues 145–162) as a substrate and anti-phospho-Thr156 antibody for detection of the substrate phosphorylation by AAK1.
(§1) Purified His-AAK1 25–396 (200 ng), His-GAK 2–370 (33 ng), His-BIKE 2–396 (87 ng), and His-STK16 2–306 (95 ng) were incubated with 10 µg GST-AP2µ2 (145–162)-His6 in a solution (20 µL) containing 50 mM HEPES pH7.5, 10 mM Mg(CH3COO)2, 1 mM DTT, and 0.1 mM [γ-^32P]ATP or ATP at 30 °C for the indicated time periods (His-GAK 2–370, 10 min; His-BIKE 2–396, 90 min; His-STK16 2–306, 20 min) in the presence or absence of various concentrations of inhibitors (5% DMSO). Then, 15 µL of the sample was spotted onto Whatman P81 paper and washed using 95% EtOH, followed by scintillation counting of the paper to measure the phosphate incorporation into GST-AP2µ2 (145–162)-His6. For immunoblot detection, reactions were terminated by the addition of an equal volume of 2 × SDS-PAGE buffer at various time points, followed by immunoblot analyses using an anti-phospho-AP2µ2 (AP2M1) at Thr156 antibody.

CaMKKα/1 [2] = biological target: T2, CaMKKα/1 (Rattus norvegicus, UniProt P97756); experiment: CaMKK activity assay: phosphorylation of GST-CaMKIα 1–293KE; type: biochemical; conditions: up to 2.6 µM, immunoblot anti-phospho-CaMKIα (pThr177), 30 °C, 10 min, Fig. 4c
T2 construct: His6; made in house; host or cells: COS-7 cells
Method: (§2) Purified His-CaMKKα/1 or His-CaMKKβ/2 (40 ng) was incubated with 10 µg GST-CaMKIα 1–293KE in a solution (20 µL) containing 50 mM HEPES pH7.5, 10 mM Mg (CH3COO)2, 1 mM DTT, 2 mM CaCl2, 6 µM CaM, and 0.1 mM [γ-^32P]ATP at 30 °C for a reaction time of 20 min in the presence or absence of compounds. Then, 15 µL of the sample was spotted onto Whatman P81 paper, followed by scintillation counting of the paper as described above to measure the phosphate incorporation into GST-CaMKIα 1–293KE. Reactions were terminated by the addition of an equal volume of 2 × SDS-PAGE for the immunoblot assay at 30 °C for 10 min using 2.5 ng of CaMKKs in the solution described above containing 0.1 mM ATP, followed by immunoblot analyses using anti-phospho-CaMKIα at the Thr177 antibody.

CaMKKβ/2 [3] = biological target: T3, CaMKKβ/2 (Rattus norvegicus, UniProt O88831); experiment: as above; type: biochemical; conditions: up to 2.6 µM, immunoblot anti-phospho-CaMKIα (pThr177), 30 °C, 10 min, Fig. 4c
T3 construct: His6; made in house; host or cells: COS-7 cells
Method: as §2

His-BIKE 2–396 = biological target: T4, His-BIKE 2–396 (Mus musculus, UniProt Q91Z96); experiment: NAKs activity assay: phosphorylation of GST-AP2µ2 (145–162); type: biochemical; conditions: His-BIKE 2–396, 0.1 mM ATP, 30 °C, 90 min, duplicate experiments; read-out: IC50 against BIKE activity
T4 construct: His-BIKE 2–396 (87 ng); His6 (N); made in house; host or cells: COS-7 cells
T4 sequence (Q91Z96 2-396): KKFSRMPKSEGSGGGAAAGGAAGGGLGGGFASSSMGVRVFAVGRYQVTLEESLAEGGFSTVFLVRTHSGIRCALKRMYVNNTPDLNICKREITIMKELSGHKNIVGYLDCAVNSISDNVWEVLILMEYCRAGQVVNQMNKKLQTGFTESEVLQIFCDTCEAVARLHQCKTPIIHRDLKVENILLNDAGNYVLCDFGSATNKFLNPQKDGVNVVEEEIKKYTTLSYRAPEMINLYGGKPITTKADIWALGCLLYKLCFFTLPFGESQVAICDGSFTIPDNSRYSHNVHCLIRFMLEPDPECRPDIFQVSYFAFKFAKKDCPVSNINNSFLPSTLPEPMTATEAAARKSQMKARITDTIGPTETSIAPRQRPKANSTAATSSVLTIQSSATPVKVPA
Method: as §1
(§3) Supplemental Information S3
(§4) Effect of TIM-98a on NAKs’ activities. Purified His-GAK 2–370 (33 ng, closed triangles), His-BIKE 2–396 (87 ng, closed circles), and His-STK16 2–306 (95 ng, open circles) were incubated with 10 µg GST-AP2µ2 (145–162)-His6 in a solution (20 µL) containing 50 mM HEPES pH7.5, 10 mM Mg(CH3COO)2, 1 mM DTT, and 0.1 mM ATP at 30°C for the indicated time periods (His-GAK 2–370, 10 min; His-Bike 2–396, 90 min; His-STK16 2–306, 20 min) in the presence or absence (-) of various concentrations of TIM-098a. […] NAK’s activities are quantitated by densitometric scanning of the immunoreactive bands and expressed as a percentage of the average value in the absence of the compound (-). Results represent duplicate experiments. Molecular mass markers (kDa) are indicated in the left lanes of immunoblot panels.
(§5) (1 picture or pasted object on this page, not shown here)

His-GAK 2–370 = biological target: T5, His-GAK 2–370 (Mus musculus, UniProt Q99KY4); experiment: as above; type: biochemical; conditions: His-GAK 2–370, 0.1 mM ATP, 30 °C, 10 min, duplicate experiments; read-out: IC50 against GAK activity
T5 construct: His-GAK 2–370 (33 ng); His6 (N); made in house; host or cells: COS-7 cells
T5 sequence (Q99KY4 2-370): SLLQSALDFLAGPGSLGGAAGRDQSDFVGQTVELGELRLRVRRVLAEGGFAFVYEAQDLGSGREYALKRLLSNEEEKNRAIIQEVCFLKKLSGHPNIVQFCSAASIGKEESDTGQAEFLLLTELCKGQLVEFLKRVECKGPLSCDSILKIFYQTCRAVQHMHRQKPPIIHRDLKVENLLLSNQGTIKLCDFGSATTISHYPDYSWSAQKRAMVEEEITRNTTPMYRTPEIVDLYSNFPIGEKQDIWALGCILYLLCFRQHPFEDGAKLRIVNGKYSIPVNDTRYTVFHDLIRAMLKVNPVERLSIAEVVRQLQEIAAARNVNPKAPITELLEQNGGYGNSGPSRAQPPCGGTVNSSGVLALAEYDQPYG
Method: as §1, §3, §4, §5

His-STK16 2–306 = biological target: T6, His-STK16 2–306 (Mus musculus, UniProt O88697); experiment: as above; type: biochemical; conditions: His-STK16 2–306, 0.1 mM ATP, 30 °C, 20 min, duplicate experiments; read-out: IC50 against STK16 activity
T6 construct: His-STK16 2–306 (95 ng); His6 (N); made in house; host or cells: COS-7 cells
T6 sequence (O88697 2-305 limits assumed): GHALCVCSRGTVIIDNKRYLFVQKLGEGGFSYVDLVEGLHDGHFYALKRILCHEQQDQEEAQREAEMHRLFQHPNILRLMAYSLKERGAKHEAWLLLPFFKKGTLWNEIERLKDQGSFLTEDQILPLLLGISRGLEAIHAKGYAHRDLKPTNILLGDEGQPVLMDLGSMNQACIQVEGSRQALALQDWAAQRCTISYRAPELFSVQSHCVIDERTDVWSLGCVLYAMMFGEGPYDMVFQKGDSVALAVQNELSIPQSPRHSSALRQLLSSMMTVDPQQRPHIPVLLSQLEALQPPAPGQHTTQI
Method: as §1, §3, §4, §5

[4] = biological target: T7, AAK1 catalytic domain (25–396) in transfected COS-7 cells (Homo sapiens, UniProt Q2M2I8); experiment: AAK1 activity in transfected COS-7 cells (pThr156 of GST-AP2µ2 145–162, immunoblot); type: cell-based; conditions: COS-7 cells expressing AAK1 25–396 and GST-AP2µ2 (145–162), 6 h treatment
T7 construct: transfected with 0.2 µg of pME-His-AAK1 25–396; expressed in transfected cells; host or cells: COS-7 cells
T7 sequence (Q2M2I8 25-396): as the sequence (Q2M2I8 25-396) above
Method: To examine the effect of TIM-098a on AAK1 activity in cells, we set up an AAK1 activity assay in the cells as follows. Transfection of expression plasmids for the catalytic domain of AAK1(25–396) together with its artificial substrate (GST-AP2µ2 145–162) into COS-7 cells was followed by detection of phosphorylation of Thr156 via immunoblot analyses with anti-phospho-Thr156 antibody after 6 h-treatment with or without TIM-098a (Fig. 5). […] When we treated AAK1/GST-AP2µ2 (145–162) expressing COS-7 cells with various concentrations of TIM-098a, AAK1-catalyzed Thr156 phosphorylation of GST-AP2µ2 (145–162) was suppressed by TIM-098a treatment in a concentration-dependent manner (Fig. 5b), indicating the cell-membrane permeability and inhibitory effect of the inhibitor on AAK1 activity in the cells.
COS-7 cells and HeLa cells were obtained from American Type Culture Collection. COS-7 cells were cultured in 6-well plates or 10 cm dishes in Dulbecco’s modified Eagle’s medium supplemented with 10% fetal bovine serum at 37 °C in 5% CO2. COS-7 cells in 6-well plates were transfected with 0.2 µg of pME-His-AAK1 25–396 and 1.8 µg of pME-GST-AP2µ2 (145–162) expression plasmids using polyethylenimine “MAX” (Polysciences, Inc. Warrington, PA), according to the manufacturer’s protocol. […]

[5] = tested on: HeLa cells overexpressing His-tagged AAK1 (1–863); experiment: Early endosome formation (EEA1-positive vesicles), immunofluorescence microscopy; type: cell-based, human; conditions: 10 µM, 6 h, AAK1-transfected HeLa cells
Method: (§6) HeLa cells were cultured in 6-well plates containing Dulbecco’s modified Eagle’s medium supplemented with 10% fetal bovine serum at 37 °C in 5% CO2. The cells were transfected with 2 µg of an AAK1-expression plasmid (pME-His-AAK1 1–863) using polyethylenimine “MAX” according to the manufacturer’s protocol. After 42 h of culture, the cells were cultured with or without 10 µM TIM-098a for 6 h. HeLa cells grown on coverslips were fixed with 3.7% paraformaldehyde in PBS for 15 min and permeabilized with 0.1% Triton X-100 in PBS for 5 min at room temperature. Next, the cells were blocked with 4% bovine serum albumin (BSA) in PBS for 15 min and incubated with primary antibodies diluted in 4% BSA in PBS for 15 min. The cells were washed three times with PBS and incubated for 15 min with the appropriate secondary antibodies conjugated to Alexa fluorophores. After washing, the coverslips were mounted on microscope slides and viewed under an FV1000 confocal microscope (Olympus, Tokyo, Japan). Quantification of EEA1-positive vesicles was performed using ImageJ software. EEA1 fluorescence signals with areas greater than 430 nm^2 were counted as EEA1-positive vesicles using the particle analyzer function in ImageJ. To account for clustered EEA1 signals, the watershed segmentation method was applied in ImageJ before using the particle analyzer.

HeLa cells = experiment: as above; type: cell-based, human; conditions: 10 µM, 6 h, untransfected HeLa cells
Method: as §6

His-tagged AAK1 = biological target: T8, His-tagged AAK1 (Homo sapiens, UniProt Q2M2I8); experiment: Pull-down of His-tagged AAK1 from COS-7 cell extracts with TIM-063–immobilized sepharose (TIM-127-sepharose); type: binding; conditions: COS-7 extracts, elution with 100 µM TIM-063
T8 construct: expressed in transfected cells; host or cells: COS-7 cells
Method: COS-7 cells transfected with expression plasmids for His-tagged AAK1 were lysed with buffer A containing protease inhibitors as described above, and then cell lysates (200 µL) were incubated with either TIM-127-coupled sepharose or control sepharose (10 µL) for 30 min. After washing the resin thrice with buffer A (500 µL), samples were eluted from the sepharose resin by incubation with 20 µL of 100 µM TIM-063 in buffer A as previously described, followed by immunoblot analysis.

CaMKKα/1 [6] = biological target: T2, CaMKKα/1; parameters: method as in PMID 32298102; conditions: cited from earlier work
CaMKKβ/2 [7] = biological target: T3, CaMKKβ/2; parameters: method as in PMID 32298102; conditions: cited from earlier work

| SMILES | pIC50 [1] | AAK1 inhibitory potency relative to TIM-063 ([1]; higher potency than TIM-063) | selectivity for AAK1: higher inhibitory potency than for other NAKs ([1]; versus GAK, BIKE, STK16) | effect on CaMKKα/1 activity (CaMKKα/1 [2]) | effect on CaMKKβ/2 activity (CaMKKβ/2 [3]) | pIC50 (His-BIKE 2–396) | pIC50 (His-GAK 2–370) | pIC50 (His-STK16 2–306) | pIC50 [4] | number of early endosomes in AAK1-transfected cells [5] | early endosome formation in wild type cells (HeLa cells) | inhibition at 2.6 µM ([1]; 2.6 µM compound) | inhibition at 26 µM ([1]; 26 µM compound) | inhibitory effect on AAK1 relative to that on CaMKK ([1]; lower on AAK1 than on CaMKK) | interaction with AAK1 catalytic domain (His-AAK 25–396) (His-tagged AAK1) | interaction with His-tagged AAK1 full length (1–863) (His-tagged AAK1) | pIC50 (CaMKKα/1 [6]) | pIC50 (CaMKKβ/2 [7]) |
| --- | --- | --- | --- | --- | --- | --- | --- | --- | --- | --- | --- | --- | --- | --- | --- | --- | --- | --- |
| Nc1ccc2c(c1)nc1c3cc(O)cc4cccc(c(=O)n21)c43 [TIM-098a, 11-amino-2-hydroxy-7H-benzo[de]benzo[4,5]imidazo[2,1-a]isoquinolin-7-one] | 6.62 | ~ 35 fold | 4–30 fold | without any significant inhibitory effects; also recorded: without any inhibitory activity | without any significant inhibitory effects; also recorded: without any inhibitory activity | 5.22 | 5.98 | 5.15 | 6.06 | recovered to the level of untransfected wild type cells | not affected |  |  |  |  |  |  |  |
| O=c1c2cccc3c([N+](=O)[O-])c(O)cc(c32)c2nc3ccccc3n12 [TIM-063, 2-hydroxy-3-nitro-7H-benzo[de]benzo[4,5]imidazo[2,1-a]isoquinolin-7-one] | 5.07 |  |  |  |  |  |  |  |  |  |  | ~20% | ~80% | ~ tenfold | strong interaction | weak binding | 6.20 | 6.02 |
